Source: the METLIN SMRT retention time set (Domingo-Almenara et al. 2019)

Assay: gradient 5% acetonitrile 3 min, to 50% in 2 min, to 85% in 15 min, held 3 min, 100 µL/min
Conditions: column: Zorbax Extend-C18 2.1 x 50 mm; eluents: water / acetonitrile, 0.1% formic acid
Summary of the method: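 Each retention time is based on an adduct peak selected computationally and verified by manual inspection. Measurements used HPLC–quadrupole time-of-flight mass spectrometry in positive and negative ionization mode on mixtures of ~100 pure standards. Chromatography ran on a Zorbax Extend-C18 column (2.1 × 50 mm, 1.8 μm) at 100 μL/min with water and acetonitrile, each containing 0.1% formic acid, and dead and dwell volumes of 40 μL and 900 μL.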

Structure (SMILES) | RP-LC retention time
CCC(C)NC(=O)c1cc2c(s1)CCN(C(=O)c1ccc(F)cc1)C2 (centres undefined) | 804 s
Cc1noc(-c2cc(=O)n(CC(=O)Nc3cccc(C)c3C)c3ccccc23)n1 | 890 s
CN(CC1CCOCC1)S(=O)(=O)Cc1cccc(Cl)c1 | 835 s
CCC(C(=O)NCCc1c(C)noc1C)n1c2ccccc2c2cnn(C)c(=O)c21 (centres undefined) | 739 s
COc1cc(NC(=O)CN2C(=O)CC(c3ccc(Cl)cc3)=Nc3cccnc32)cc(OC)c1 | 1000 s
Cc1ccc(-c2coc(-c3ccc(NC(=O)NCc4ccco4)cc3)n2)c(C)c1 | 1110 s
CCCN1C(=O)COc2ccc(-c3csc(NC(=O)COc4ccc(Cl)cc4Cl)n3)cc21 | 1210 s
COCCCNS(=O)(=O)c1ccccc1-c1nc(-c2cccc(F)c2)no1 | 1040 s
Cn1cc(-c2nc(C(=O)Nc3ccc(Cl)cc3F)cs2)c2cccnc21 | 1260 s
CCC(Sc1ccc(NC(=O)c2cccc(F)c2)nn1)C(=O)OC (centres undefined) | 890 s
Cc1ccc(NC(=O)Cn2c(=O)n(-c3ccc(F)cc3)c(=O)c3c2cc(C)n3C)cc1Cl | 946 s
Cc1ccc(Nc2nc3ccncc3n(Cc3ccccc3)c2=O)cc1Cl | 898 s
COc1ccc(C2Cn3nnc(-c4nc(-c5ccccc5F)no4)c3CO2)cc1 (centres undefined) | 1090 s
Fc1ccc(-c2nc(-c3ccc(-n4cccn4)nc3)no2)c(F)c1 | 1170 s
CN1c2cc(F)ccc2C(=O)NC12CCN(C(=O)c1cc(F)cc(F)c1)CC2 | 793 s
O=C(OCc1nc2ccccc2s1)c1ccc([N+](=O)[O-])o1 | 848 s
COc1ccc(NC(=O)C2CCN(S(C)(=O)=O)c3cc(Cl)ccc3O2)cc1 (centres undefined) | 918 s
O=C(Nc1cccc(-c2cn3cccnc3n2)c1)c1ccccc1[N+](=O)[O-] | 637 s
COc1ccc(C(=O)Nc2nc(C)c3cc4c(cc3n2)OCO4)cc1 | 692 s
Cc1c(C(=O)O)nnn1Cc1cccc(C(F)(F)F)c1 | 744 s
CNC(=O)[C@@H]1CN(C(=O)c2ccsc2)C[C@H]1c1nc(C)no1 | 615 s
CN(C)c1cccc(C(=O)Nc2cc(-c3cccnc3)no2)c1 | 728 s
COc1cc(NC(=O)CSc2ccc(N3CCOCC3)nn2)cc(OC)c1 | 682 s
CCc1cccc(NC(=O)c2cc3sccc3n2Cc2ccc(Cl)cc2)c1 | 1340 s

Structure (SMILES) | RP-LC retention time
COC(=O)C(C)Sc1ncnc2c1oc1ccccc12 (centres undefined) | 906 s
CCSc1nnc(NC(=O)Cn2nc(-c3ccncc3)ccc2=O)s1 | 561 s
COc1ccccc1-c1noc(C2CCCN2C(=O)Nc2ccc(F)cc2F)n1 (centres undefined) | 840 s
Cn1c(CNC(=O)CSc2nnc3c4ccccc4nc(-c4ccco4)n23)nc2ccccc21 | 632 s
CC(CN(CCS(=O)(=O)N1CCNCC1)C(=O)c1ccc(Br)cc1)c1ccccc1 (centres undefined) | 735 s
Cn1nnc2ccc(-c3noc(-c4cc(F)ccc4Cl)n3)cc21 | 1060 s
CCn1cc(CN2CCn3c(nnc3[C@@H]3C[C@@H](O)CN3Cc3cccnc3)C2)c(C)n1 | 513 s
Cc1cc(C)nc(Nc2nc(-c3ccccc3)c3ccccc3n2)n1 | 709 s
CCn1ncn2cc(S(=O)(=O)Nc3ccc(C)c(F)c3)cc2c1=O | 909 s
COCC1CN(C2CCC2)CC12CCN(C(=O)c1ccc(C)s1)CC2 (centres undefined) | 645 s
CSc1ccc(-c2nc3cnccn3c2Nc2cccc(C(=O)O)c2)cc1 | 744 s
Cc1cccc(NC(=O)NC2CCN(c3ccc(F)cc3)C2=O)c1 (centres undefined) | 830 s
O=C(NC1CCN(C(=O)C2CC2)C1)C1CCC1 (centres undefined) | 606 s
CCCNC(=O)CN1CCN(Cc2ccc(F)cc2)C1=O | 688 s
CN(C)c1nccnc1OC1CCN(C(=O)C2CCOCC2)C1 (centres undefined) | 605 s
Cc1ccccc1CN1C[C@@H]2C(=O)N(C)C(=O)[C@@H]2C1 | 585 s
CCn1cc(-c2nc(CC(=O)Nc3ccccc3OC)cs2)c2cccnc21 | 984 s
CCc1nc2sc(C(C)C)nn2c1S(=O)(=O)N1CCSCC1 | 962 s
Cc1ccc(-c2noc(Cn3c(=O)n(C(C)C)c(=O)c4ccccc43)n2)cc1C | 1220 s
COc1ccc(-c2csc(CN3CCN(C(=O)c4c(F)cccc4Cl)CC3)n2)cc1 | 805 s
COc1ccc(C2Cn3nnc(C(=O)N4CCN(C(=O)c5cc(F)ccc5F)CC4)c3CO2)cc1 (centres undefined) | 872 s
O=C1C(c2cccnc2)N(Cc2ccco2)C(=O)CN1c1ccccc1 (centres undefined) | 619 s
Cc1nc(-c2cccc(-c3noc(COc4ccc(F)cc4)n3)c2)cs1 | 1200 s

The next lines start with the values.

RP-LC retention time | Structure (SMILES)
647 s | Cc1cnc(C(=O)N2CC[C@H](n3c(=O)n(C)c4cccnc43)C2)cn1
948 s | Cc1nn(-c2ccccc2)c2ccn(CC(=O)N3CCN(c4ccc(Cl)cc4)CC3)c(=O)c12
994 s | CCOC(=O)c1cccc(NC(=O)C2CCCN(c3ccc(=O)n(-c4cccc(Cl)c4)n3)C2)c1 (centres undefined)
587 s | CCOCC(=O)N1CCCn2ccnc2C1C1CCCC1 (centres undefined)
839 s | COc1ccc(OC)c(S(=O)(=O)NCc2c(-c3ccccc3)nc3sc(C)nn23)c1
686 s | Cc1ccc2nc(N3CCN(Cc4ccccc4)CC3)c(-c3noc(C)n3)cc2c1
824 s | Cn1cccc1C(=O)C(=O)N1CCN(C(c2ccccc2)c2ccccc2)CC1
694 s | COc1ncccc1CNC(=O)c1cccs1
698 s | O=C(c1ccccc1F)N1CCCCC1c1nncn1CC1CC1 (centres undefined)
839 s | CCCC(=O)Nc1ccc2nc(N3CCN(CC(=O)NCCOC)CC3)cc(C(=O)O)c2c1
896 s | Cc1cc(NC(=O)Nc2cccc3ccccc23)no1
842 s | CCOC(=O)c1[nH]c(C)c(CCC(=O)N2CCC(C(=O)NCCCc3ccccc3)CC2)c1C
692 s | Cc1cc(C)n(CCNC(=O)C(=O)Nc2ccc(Cl)cn2)n1
738 s | O=C(Cn1c(=O)oc2ccccc21)N1CCN(C(=O)C2CC2c2cccs2)CC1 (centres undefined)
906 s | O=C(Cn1ccn2nc(-c3ccccc3)c(CO)c2c1=O)Nc1ccc2c(c1)CCC2
821 s | Cc1ccc(Cl)cc1NC(=O)C1CC(=O)N(c2ccc3c(c2)CCN3C(=O)C2CC2)C1 (centres undefined)
811 s | CC(=O)c1ccc2c3c(cccc13)C(=O)N(c1ccccc1)C2=O
861 s | COc1cc(OC)c(NC(=O)Cn2c(=O)n(-c3ccccc3)c(=O)c3c2cc(C)n3C)cc1Cl
815 s | CC(C)CCNC(=O)c1ccc2c(c1)nc1n2CCN(C2CCCCC2)C1=O
763 s | O=C(NCc1nnnn1C1CCCCC1)c1c(F)cccc1Cl
952 s | O=C(C1CCOC1)N1CC(Oc2ccc(-c3nc(-c4ccccc4)no3)cc2)C1 (centres undefined)

RP-LC retention time | Structure (SMILES)
901 s | Cc1cc(C)c(CNC(=O)c2ccc(NC(=O)C3CC3)cc2N2CCOCC2)c(C)c1
791 s | CN1C(=O)c2cc(C(=O)NCc3ccccc3)nn2CC1(C)C(=O)NC1CCCCCC1 (centres undefined)
727 s | CCCNC(=O)C1CCCN(c2nc3ncn(CC(=O)Nc4c(C)cccc4CC)c(=O)c3s2)C1 (centres undefined)
668 s | CC1(CNC(=O)Cc2c[nH]c3ccccc23)CCOCC1
618 s | Cc1ccc(CNC(=O)Cn2c(N3CCCC3)nc(C)cc2=O)cc1
873 s | CSc1cccc(NC(=O)N2CC=C(c3cn(C)c4ncccc34)CC2)c1
804 s | CCn1nc(CNC(=O)c2ccc3c(c2)OCO3)c2ccccc21
656 s | O=C(Nc1ccc(F)cc1F)N1CCC(OC2CCN(Cc3ccccc3)CC2)CC1
906 s | Cc1ccc(Nc2nc(C(=O)NC3CCCCC3)nc3ccccc23)cc1
776 s | CCn1c(C(=O)N2CCN(c3ccccn3)CC2)cc2c(-c3cccs3)nn(-c3ccccc3)c21
599 s | COc1ccccc1N1CCN(CCNC(=O)C(=O)NC2CCCCC2)CC1
584 s | O=C(Nc1nccnc1C(=O)NCc1cccnc1)c1ccccc1
710 s | O=C(Nc1nc2c(s1)CN(C(=O)c1cc(C3CC3)on1)CC2)c1ccco1
889 s | CCn1cnc(S(=O)(=O)N2CCCC(C(=O)Nc3ccc(Br)c(C)c3)C2)c1 (centres undefined)
632 s | Cn1c(=O)c2c(C(=O)NCC3CCN(Cc4cccc(Cl)c4)CC3)cc(=O)n(C)c2n(C)c1=O
578 s | Cn1c(N2CCCC(C(=O)N3CCN(c4ccccn4)CC3)C2)cc(=O)n(C)c1=O (centres undefined)
693 s | COc1ccccc1NC(=O)C1CCN(S(=O)(=O)c2c(C)[nH]c(C)c2C(=O)N2CCCC2)CC1
895 s | CSc1ccc(CNC(=O)c2cc3n(n2)CCCN(Cc2ccccc2)C3=O)cc1
711 s | O=C(c1cc(-c2ccccc2)n[nH]1)N1CC(c2nc(C3CC3)no2)C1
932 s | CCOC(=O)c1c(S(=O)(=O)N2CCC(C(=O)Nc3cccc(Cl)c3)CC2)c(C)n(C)c1C
1010 s | O=C(Cc1cccc(F)c1)N1CCCC1c1nc(-c2ccc(F)cc2)no1 (centres undefined)
